Reference: DBAASP
In brackets after ≈: the same amount, converted by molar mass.

Columns and labels:
Test in all cases: ≥ marks a high value that may be exact or a test limit, other limits are often not marked, values filed in µg/mL are converted to µM
[1] = tested on: Pseudomonas aeruginosa H1001
[2] = tested on: Pseudomonas aeruginosa CCARM 2002
[3] = tested on: Staphylococcus aureus KCTC 1621
[4] = tested on: Escherichia coli CCARM 1229
[5] = tested on: Salmonella typhimurium KCTC 1926
[6] = tested on: Acinetobacter baumannii CCARM 12035
[7] = tested on: Salmonella typhimurium CCARM 8007
[8] = tested on: Bacillus subtilis KCTC 3068
[9] = tested on: Pseudomonas aeruginosa KCTC 2004
[10] = tested on: Escherichia coli KCTC 1682
[11] = tested on: Staphylococcus epidermidis KCTC 1917
[12] = tested on: Acinetobacter baumannii KCTC 2508
[13] = tested on: Staphylococcus aureus CCARM 3126
[14] = tested on: Escherichia coli JW55034
[15] = tested on: Pseudomonas aeruginosa J4228
[16] = tested on: Acinetobacter baumannii Josh 28
[17] = tested on: Klebsiella pneumoniae BB2009-209
[18] = tested on: Klebsiella pneumoniae Oschner KP-1
[19] = tested on: Klebsiella pneumoniae J3702
[20] = tested on: Enterobacter cloacae BB2013-32
[21] = tested on: Enterobacter cloacae BB2012-181
[22] = tested on: Pseudomonas aeruginosa BB2013-100
[23] = tested on: Escherichia coli ARLG-1012
[24] = tested on: Klebsiella aerogenes St. L P63
[25] = tested on: Enterobacter asburiae St. L P23
[26] = tested on: Enterobacter cloacae St. L P23
[27] = tested on: Pseudomonas aeruginosa ATCC 27853
[28] = tested on: Escherichia coli BB2013-30
[29] = tested on: Escherichia coli BW25113
[30] = tested on: Acinetobacter baumannii Josh 230

| MIC [1] | MIC [2] | MIC [3] | MIC [4] | MIC [5] | MIC [6] | MIC [7] | MIC [8] | MIC [9] | MIC [10] | MIC [11] | MIC [12] | MIC [13] | MIC [14] | MIC [15] | MIC [16] | MIC [17] | MIC [18] | MIC [19] | MIC [20] | also measured | SMILES |
| --- | --- | --- | --- | --- | --- | --- | --- | --- | --- | --- | --- | --- | --- | --- | --- | --- | --- | --- | --- | --- | --- |
| 0.0328 µM (≈ 0.08 µg/mL) | – | – | – | – | – | – | – | – | – | – | – | – | – | – | – | – | – | – | – | – | CC(C)C[C@H](NC(=O)[C@H](Cc1ccc(O)cc1)NC(=O)[C@@H]1CCCN1C(=O)[C@@H]1CCCN1C(=O)[C@H](CCCCN)NC(=O)[C@H](CC(=O)O)NC(=O)[C@@H](N)C(C)C)C(=O)N1CCC[C@H]1C(=O)N[C@@H](CCCN=C(N)N)C(=O)N1CCC[C@H]1C(=O)N[C@@H](CCCN=C(N)N)C(=O)N1CCC[C@H]1C(=O)N1CCC[C@H]1C(=O)N[C@@H](CCCN=C(N)N)C(=O)N[C@@H](CCCN=C(N)N)C(=O)N[C@@H](CS)C(=O)N[C@@H](Cc1ccc(O)cc1)C(=O)N[C@@H](CC(N)=O)C(=O)N[C@@H](CCCN=C(N)N)C(=O)NCC(=O)O [VDKPPYLPRPRPPRRCYNRG] |
| – | 16 µM (≈ 23.4 µg/mL) | 16 µM (≈ 23.4 µg/mL) | ≥ 32 µM | 16 µM (≈ 23.4 µg/mL) | 16 µM (≈ 23.4 µg/mL) | 16 µM (≈ 23.4 µg/mL) | 16 µM (≈ 23.4 µg/mL) | 8 µM (≈ 11.7 µg/mL) | 8 µM (≈ 11.7 µg/mL) | ≥ 32 µM | ≥ 32 µM | 16 µM (≈ 23.4 µg/mL) | – | – | – | – | – | – | – | – | CC[C@H](C)[C@H](NC(=O)[C@H](CCCCN)NC(=O)[C@H](Cc1c[nH]c2ccccc12)NC(=O)[C@@H](N)CCCN=C(N)N)C(=O)N[C@@H](Cc1ccccc1)C(=O)N[C@@H](CCCCN)C(=O)N[C@@H](CCCCN)C(=O)N[C@@H](C)C(=O)N[C@@H](C)C(=O)N[C@@H](CCCCN)C(=O)N[C@@H](CCCCN)C(=O)NCC(N)=O [RWKIFKKAAKKG] |
| – | ≥ 32 µM | 8 µM (≈ 11.8 µg/mL) | ≥ 32 µM | ≥ 32 µM | 16 µM (≈ 23.6 µg/mL) | 16 µM (≈ 23.6 µg/mL) | 16 µM (≈ 23.6 µg/mL) | 8 µM (≈ 11.8 µg/mL) | 8 µM (≈ 11.8 µg/mL) | ≥ 32 µM | ≥ 32 µM | ≥ 32 µM | – | – | – | – | – | – | – | – | CC[C@H](C)[C@H](NC(=O)[C@H](CCCCN)NC(=O)[C@H](Cc1c[nH]c2ccccc12)NC(=O)[C@@H](N)CCCN=C(N)N)C(=O)N[C@@H](Cc1ccccc1)C(=O)N[C@@H](CCCCN)C(=O)N[C@@H](CCCCN)C(=O)N[C@@H](C)C(=O)N[C@@H](C)C(=O)N[C@@H](CCCCN)C(=O)N[C@@H](CCCCN)C(=O)N[C@@H](C)C(N)=O [RWKIFKKAAKKA] |
| – | – | – | – | – | – | – | – | – | – | – | – | – | 4.92 µM (≈ 8 µg/mL) | 4.92 µM (≈ 8 µg/mL) | 2.46 µM (≈ 4 µg/mL) | 19.7 µM (≈ 32 µg/mL) | 19.7 µM (≈ 32 µg/mL) | 19.7 µM (≈ 32 µg/mL) | 19.7 µM (≈ 32 µg/mL) | MIC [21]: 19.7 µM (≈ 32 µg/mL); MIC [22]: 19.7 µM (≈ 32 µg/mL); MIC [23]: 4.92 µM (≈ 8 µg/mL); MIC [24]: 19.7 µM (≈ 32 µg/mL); MIC [25]: 19.7 µM (≈ 32 µg/mL); MIC [26]: 19.7 µM (≈ 32 µg/mL); MIC [27]: 2.46 µM (≈ 4 µg/mL); MIC [28]: 9.83 µM (≈ 16 µg/mL); MIC [29]: 4.92 µM (≈ 8 µg/mL); MIC [30]: 9.83 µM (≈ 16 µg/mL) | CC[C@H](C)[C@H](NC(=O)[C@H](C)N)C(=O)N[C@@H](CCCCN)C(=O)N[C@H](C(=O)N[C@@H](CCCN=C(N)N)C(=O)N[C@@H](CCCCN)C(=O)N[C@@H](CC(C)C)C(=O)N[C@@H](Cc1ccccc1)C(=O)N[C@@H](CCCCN)C(=O)N[C@@H](CCCCN)C(=O)N[C@@H](CC(C)C)C(=O)N[C@@H](CC(C)C)C(=O)N[C@@H](CCCN=C(N)N)C(N)=O)[C@@H](C)CC [AIKIRKLFKKLLR] |
| ≥ 208 µM | – | – | – | – | – | – | – | – | – | – | – | – | – | – | – | – | – | – | – | – | NC(=O)[C@H](CCCN=C(N)N)NC(=O)[C@H](CCCN=C(N)N)NC(=O)[C@H](Cc1c[nH]c2ccccc12)NC(=O)[C@H](CCCN=C(N)N)NC(=O)[C@H](Cc1c[nH]c2ccccc12)NC(=O)[C@H](Cc1c[nH]c2ccccc12)NC(=O)[C@@H](N)CCCN=C(N)N [RWWRWRR] |
| – | – | – | – | – | – | – | – | – | – | – | – | – | 5 µM (≈ 8 µg/mL) | 10 µM (≈ 16 µg/mL) | 1.25 µM (≈ 2 µg/mL) | 20 µM (≈ 32 µg/mL) | 20 µM (≈ 32 µg/mL) | 20 µM (≈ 32 µg/mL) | 10 µM (≈ 16 µg/mL) | MIC [21]: 20 µM (≈ 32 µg/mL); MIC [22]: 20 µM (≈ 32 µg/mL); MIC [23]: 5 µM (≈ 8 µg/mL); MIC [24]: 10 µM (≈ 16 µg/mL); MIC [25]: 20 µM (≈ 32 µg/mL); MIC [26]: 20 µM (≈ 32 µg/mL); MIC [27]: 5 µM (≈ 8 µg/mL); MIC [28]: 10 µM (≈ 16 µg/mL); MIC [29]: 5 µM (≈ 8 µg/mL); MIC [30]: 2.5 µM (≈ 4 µg/mL) | CC[C@H](C)[C@H](NC(=O)[C@H](Cc1cnc[nH]1)NC(=O)[C@H](CCCCN)NC(=O)[C@H](CCCCN)NC(=O)[C@H](CC(C)C)NC(=O)[C@H](CCCCN)NC(=O)[C@H](CCCCN)NC(=O)[C@H](CC(C)C)NC(=O)[C@H](Cc1ccccc1)NC(=O)[C@H](Cc1ccccc1)NC(=O)[C@H](CCCCN)NC(=O)[C@@H](NC(=O)CN)[C@@H](C)CC)C(N)=O [GIKFFLKKLKKHI] |
